These molecules were tested on IL-1β production in PMA-differentiated THP-1 cells (assay: IL-1β production in PMA-differentiated THP-1 cells stimulated with gramicidin (hTHP-1 assay, HTRF readout; Procedures 1-3)). Conditions: Homo sapiens, THP-1, hTHP-1 assay containing 2% fetal bovine serum; average; class symbols; read-out: hTHP-1 IC50 (Average IC50 of compounds in hTHP-1 assay).
Format: cell-based, human
Outline: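 PMA-differentiated (20 ng/ml, 16-18 h) THP-1 cells in RPMI with 2% FBS, 50,000 cells/well, preincubated 1 h with compound (final 0.0017-100 μM, 0.37% DMSO), then stimulated with 5 μM gramicidin for 2 h. IL-1β in cell-free supernatant measured by HTRF (620/668 nm).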

IC50 [µM] | Structure (SMILES)
5 to 30 | CC(C)c1cc(F)cc(C(C)C)c1NC(=O)N=S(N)(=O)c1ccc2c(c1)CCO2 (stereo not drawn) [Example 211, N′-((4-fluoro-2,6-diisopropylphenyl)carbamoyl)-2,3-dihydrobenzofuran-5-sulfonimidamide]
1 to 5 | NS(=O)(=NC(=O)Nc1c2c(cc3c1CCC3)CCC2)c1ccc(CO)cc1 (stereo not drawn) [Example 233, 1-[amino[4-(hydroxymethyl)phenyl]oxo-λ^6-sulfanylidene]-3-(1,2,3,5,6,7-hexahydro-s-indacen-4-yl)urea]
1 to 5 | NS(=O)(=NC(=O)Nc1c2c(cc3c1CCC3)CCC2)c1ccc(CN2CCCC2)cc1 (stereo not drawn) [Example 236, N′-(1,2,3,5,6,7-hexahydro-s-indacen-4-ylcarbamoyl)-4-(pyrrolidin-1-ylmethyl)benzenesulfonimidamide]
1 to 5 | C=CCN(C)Cc1ccc(S(N)(=O)=NC(=O)Nc2c3c(cc4c2CCC4)CCC3)cc1 (stereo not drawn) [Example 238, 4-((Allyl(methyl)amino)methyl)-N′-(1,2,3,5,6,7-hexahydro-s-indacen-4-ylcarbamoyl)benzenesulfonimidamide]
1 to 5 | NCc1ccc(S(N)(=O)=NC(=O)Nc2c3c(cc4c2CCC4)CCC3)cc1 (stereo not drawn) [Example 243, 4-(Aminomethyl)-N′-(1,2,3,5,6,7-hexahydro-s-indacen-4-ylcarbamoyl)benzenesulfonimidamide]
5 to 30 | CNS(=O)(=NC(=O)Nc1c2c(cc3c1CCC3)CCC2)c1cc(C(C)(C)O)cs1 (stereo not drawn) [Example 246]
5 to 30 | CC(=O)NS(=O)(=NC(=O)Nc1c2c(cc3c1CCC3)CCC2)c1cnc(C(C)(C)O)s1 (stereo not drawn) [Example 250]
1 to 5 | COC(=O)CCC(=O)N(C)Cc1ccc(S(N)(=O)=NC(=O)Nc2c3c(cc4c2CCC4)CCC3)cc1 (stereo not drawn) [Example 251]

More lines, now with the values behind:

Structure (SMILES) | IC50 [µM]
CC(C)c1cc(F)cc(C(C)C)c1NC(=O)N=S(N)(=O)c1cc(Cl)c(Cl)s1 (stereo not drawn) [Example 208, 4,5-Dichloro-N′-((4-fluoro-2,6-diisopropylphenyl)carbamoyl)thiophene-2-sulfonimidamide] | 5 to 30
CC(C)c1cc(F)cc(C(C)C)c1NC(=O)N=S(N)(=O)c1cccnc1 (stereo not drawn) [Example 215, N′-((4-fluoro-2,6-diisopropylphenyl)carbamoyl)pyridine-3-sulfonimidamide] | 5 to 30
Cc1cc(S(N)(=O)=NC(=O)Nc2c(C(C)C)cc(F)cc2C(C)C)c(C)o1 (stereo not drawn) [Example 217, N′-((4-fluoro-2,6-diisopropylphenyl)carbamoyl)-2,5-dimethylfuran-3-sulfonimidamide] | 5 to 30
CC(C)c1cc(F)cc(C(C)C)c1NC(=O)N=S(N)(=O)c1cnc2ccccc2c1 (stereo not drawn) [Example 218, N′-((4-fluoro-2,6-diisopropyl-phenyl)carbamoyl)quinoline-3-sulfonimidamide] | 1 to 5
Cc1ccc(S(N)(=O)=NC(=O)Nc2c(C(C)C)cc(F)cc2C(C)C)nc1 (stereo not drawn) [Example 220, N′-((4-fluoro-2,6-diisopropylphenyl)carbamoyl)-5-methylpyridine-2-sulfonimidamide] | 5 to 30
Cc1oc(S(N)(=O)=NC(=O)Nc2c3c(nc4c2CCC4)CCC3)cc1C(C)(C)O (stereo not drawn) [Example 221, N′-((1,2,3,5,6,7-hexahydrodicyclopenta[b,e]pyridin-8-yl)carbamoyl)-4-(2-hydroxypropan-2-yl)-5-methylfuran-2-sulfonimidamide] | 0.04 to 0.2
Cc1oc(S(N)(=O)=NC(=O)Nc2c(C(C)C)cncc2C(C)C)cc1C(C)(C)O (stereo not drawn) [Example 222, N′-((3,5-diisopropylpyridin-4-yl)carbamoyl)-4-(2-hydroxypropan-2-yl)-5-methylfuran-2-sulfonimidamide] | 0.2 to 1
CC(C)(O)c1ncc(S(N)(=O)=NC(=O)Nc2c3c(cc4c2CC4)CC3)s1 (stereo not drawn) [Example 226, 2-(2-Hydroxypropan-2-yl)-N′-(tricyclo[6.2.0.03,6]deca-1,3(6),7-trien-2-ylcarbamoyl)thiazole-5-sulfonimidamide] | 0.008 to 0.04
NS(=O)(=NC(=O)Nc1c2c(c(F)c3c1CCC3)CCC2)c1ccc(O)cc1F (stereo not drawn) [Example 229, 2-Fluoro-N′-(8-fluoro-1,2,3,5,6,7-hexahydro-s-indacen-4-ylcarbamoyl)-4-hydroxybenzenesulfonimidamide] | 1 to 5
CC(C)(O)c1ncc(S(N)(=O)=NC(=O)Nc2c3c(cc4c2CCC4O)CCC3)s1 (stereo not drawn) [Example 230] | 1 to 5
COC1CN(Cc2ccc(S(N)(=O)=NC(=O)Nc3c4c(cc5c3CCC5)CCC4)cc2)C1 (stereo not drawn) [Example 231] | 1 to 5
COCCN(C)Cc1ccc(S(N)(=O)=NC(=O)Nc2c3c(cc4c2CCC4)CCC3)cc1 (stereo not drawn) [Example 232, N′-(1,2,3,5,6,7-hexahydro-s-indacen-4-ylcarbamoyl)-4-(((2-methoxyethyl)(methyl)amino)meth-yl)benzenesulfonimidamide] | 1 to 5
NS(=O)(=NC(=O)Nc1c2c(cc3c1CCC3)CCC2)c1ccc(CN2CCOCC2)cc1 (stereo not drawn) [Example 234, N′-(1,2,3,5,6,7-hexahydro-s-indacen-4-ylcarbamoyl)-4-(morpholino-methyl)benzenesulfonimidamide] | 1 to 5
NS(=O)(=NC(=O)Nc1c2c(cc3c1CCC3)CCC2)c1ccc(CN2CCC(F)(F)C2)cc1 (stereo not drawn) [Example 235, 4-((3,3-Difluoropyrrolidin-1-yl)methyl)-N′-(1,2,3,5,6,7-hexahydro-s-indacen-4-ylcarbamoyl)benzenesulfonimidamide] | 1 to 5
NS(=O)(=NC(=O)Nc1c2c(cc3c1CCC3)CCC2)c1ccc(CN2CCC2)cc1 (stereo not drawn) [Example 237, 4-(Azetidin-1-ylmethyl)-N′-(1,2,3,5,6,7-hexahydro-s-indacen-4-ylcarbamoyl)benzenesulfonimidamide] | 1 to 5
C#CCN(C)Cc1ccc(S(N)(=O)=NC(=O)Nc2c3c(cc4c2CCC4)CCC3)cc1 (stereo not drawn) [Example 239, N′-(1,2,3,5,6,7-hexahydro-s-indacen-4-ylcarbamoyl)-4-((methyl(prop-2-ynyl)amino)methyl)benzene-sulfonimidamide] | 1 to 5
CN(Cc1ccc(S(N)(=O)=NC(=O)Nc2c3c(cc4c2CCC4)CCC3)cc1)CC1CC1 (stereo not drawn) [Example 240, 4-(((Cyclopropyl-methyl)(methyl)amino)methyl)-N′-(1,2,3,5,6,7-hexahydro-s-indacen-4-ylcarbamoyl)benzenesulfonimidamide] | 1 to 5
CN(Cc1ccc(S(N)(=O)=NC(=O)Nc2c3c(cc4c2CCC4)CCC3)cc1)CC(F)F (stereo not drawn) [Example 241, 4-(((2,2-Difluoroethyl)(methyl)amino)methyl)-N′-(1,2,3,5,6,7-hexahydro-s-indacen-4-ylcarbamoyl)benzenesulfonimidamide] | 1 to 5
COCc1ccc(S(N)(=O)=NC(=O)Nc2c3c(cc4c2CCC4)CCC3)cc1 (stereo not drawn) [Example 242, N′-(1,2,3,5,6,7-hexahydro-s-indacen-4-ylcarbamoyl)-4-(methoxymethyl)benzenesulfonimidamide] | 1 to 5
NS(=O)(=NC(=O)Nc1c2c(cc3c1CCC3)CCC2)c1ccc(CN2CCCC2=O)cc1 (stereo not drawn) [Example 244] | 5 to 30
CN(C)S(=O)(=NC(=O)Nc1c2c(cc3c1CCC3)CCC2)c1cc(C(C)(C)O)cs1 (stereo not drawn) [Example 245] | 5 to 30
CC(C)c1ccc(C#N)c(C(C)C)c1NC(=O)N=S(N)(=O)c1ccc(C(C)(C)O)s1 (stereo not drawn) [Example 254, N′-((3-cyano-2,6-diisopropylphenyl)carbamoyl)-5-(2-hydroxypropan-2-yl)thiophene-2-sulfonimidamide] | 1 to 5

Same assay, conditions: Homo sapiens, THP-1, hTHP-1 assay containing 2% fetal bovine serum; average; given as bound; read-out: hTHP-1 IC50 (Average IC50 of compounds in hTHP-1 assay)

IC50 [µM] | Structure (SMILES)
> 30 | COCc1ccccc1S(N)(=O)=NC(=O)Nc1c(C(C)C)cc(F)cc1C(C)C (stereo not drawn) [Example 213, N′-((4-fluoro-2,6-diisopropylphenyl)carbamoyl)-2-(methoxymethyl)benzene-sulfonimidamide]
> 30 | CC(C)c1cc(F)cc(C(C)C)c1NC(=O)N=S(N)(=O)c1cc(Cl)sc1Cl (stereo not drawn) [Example 214, 2,5-dichloro-N′-((4-fluoro-2,6-diisopropylphenyl)carbamoyl)thio-phene-3-sulfonimidamide]
> 30 | CC(C)c1cc(F)cc(C(C)C)c1NC(=O)N=S(N)(=O)c1ccc2c(c1)OCO2 (stereo not drawn) [Example 216, N′-((4-fluoro-2,6-diisopropyl-phenyl)carbamoyl)benzo[d][1,3]dioxole-5-sulfonimidamide]
> 30 | CN(Cc1ccc(S(N)(=O)=NC(=O)Nc2c3c(cc4c2CCC4)CCC3)cc1)C(=O)CCC(=O)O (stereo not drawn) [Example 252]

The remaining lines, values behind:

Structure (SMILES) | IC50 [µM]
Cc1nn(C)cc1S(N)(=O)=NC(=O)Nc1c(C(C)C)cc(F)cc1C(C)C (stereo not drawn) [Example 209, N′-((4-fluoro-2,6-diisopropylphenyl)carbamoyl)-1,3-dimethyl-1H-pyrazole-4-sulfonimidamide] | > 30
CC(C)c1cc(F)cc(C(C)C)c1NC(=O)N=S(N)(=O)c1ccc2ccccc2c1 (stereo not drawn) [Example 210, N′-((4-fluoro-2,6-diisopropylphenyl)carbamoyl)naphthalene-2-sulfonimidamide] | > 30
CC(C)c1cc(F)cc(C(C)C)c1NC(=O)N=S(N)(=O)c1ccccc1-c1ccccc1 (stereo not drawn) [Example 212, N′-((4-fluoro-2,6-diisopropylphenyl)carbamoyl)-[1,1′-biphenyl]-2-sulfonimidamide] | > 30
CC(C)c1cc(F)cc(C(C)C)c1NC(=O)N=S(N)(=O)c1cnc2n1CCC2 (stereo not drawn) [Example 219, N′-((4-fluoro-2,6-diisopropylphenyl)carbamoyl)-6,7-dihydro-5H-pyrrolo[1,2-a]imidazole-3-sulfonimidamide] | > 30

Same assay, conditions: hTHP-1 assay containing 2% fetal bovine serum; average; class symbols; read-out: hTHP-1 IC50 (Average IC50 of compounds in hTHP-1 assay)

IC50 [µM] | Structure (SMILES)
5 to 30 | CN(C(=O)N=S(N)(=O)c1cnc(C(C)(C)O)s1)c1c2c(cc3c1CCC3)CCC2 (stereo not drawn) [Example 248, N′-((1,2,3,5,6,7-hexahydro-s-indacen-4-yl)(methyl)carbamoyl)-2-(2-hydroxypropan-2-yl) thiazole-5-sulfonimidamide]

From patent US10654816B2, “Compounds and compositions for treating conditions associated with NLRP activity” (NOVARTIS INFLAMMASOME RESEARCH, INC., priority 2017, dated 2020)
